# Columns and labels:
# Experiment in all cases: Post-emergence herbicidal action against harmful plants (greenhouse)
# Assay type in all cases: in vivo
# Solanum nigrum (SOLNI) = tested on: Solanum nigrum (SOLNI)
# Procedure: (§1) Seeds of monocotyledonous and dicotyledonous weed and crop plants are laid out in sandy loam soil in wood-fibre pots, covered with soil and cultivated in a greenhouse under good growth conditions. 2 to 3 weeks after sowing, the test plants are treated at the one-leaf stage. The compounds of the invention, formulated in the form of wettable powders (WP) or as emulsion concentrates (EC), are then sprayed onto the green parts of the plants in the form of an aqueous suspension or emulsion at a water application rate equivalent to 600 to 800 l/ha, with addition of 0.2% wetting agent. After the test plants have been […], the action of the preparations is assessed visually in comparison to untreated controls (herbicidal action in percent (%): 100% activity=the plants have died, 0% activity=like control plants). […] The tables below illustrate, in an illustrative manner, the post-emergence herbicidal action of the compounds of the invention, the herbicidal activity being stated in percent.
# (§2) In the tables that follow, the abbreviations mean the following: • E: means the synergism value to be expected according to the Colby formula. • Δ SYN: means the difference between the actual and expected synergism value. • DAT: means days after treatment.
# [1] = tested on: Abutilon theophrasti (ABUTH)
# Procedure: as §1, §2
# Setaria viridis (SETVI) = tested on: Setaria viridis (SETVI)
# Procedure: as §1, §2
# [2] = tested on: Sorghum halepense (SORHA)
# Procedure: (§3) Seeds of monocotyledonous and dicotyledonous weed and crop plants are laid out in sandy loam soil in wood-fibre pots, covered with soil and cultivated in a greenhouse under good growth conditions. 2 to 3 weeks after sowing, the test plants are treated at the one-leaf stage. The compounds of the invention, formulated in the form of wettable powders (WP) or as emulsion concentrates (EC), are then sprayed onto the green parts of the plants in the form of an aqueous suspension or emulsion at a water application rate equivalent to 600 to 800 l/ha, with addition of 0.2% wetting agent. After the test plants have been left to stand in the greenhouse under optimal growth conditions for about 3 weeks, the action of the preparations is assessed visually in comparison to untreated controls (herbicidal action in percent (%): 100% activity=the plants have died, 0% activity=like control plants). […] The tables below illustrate, in an illustrative manner, the post-emergence herbicidal action of the compounds of the invention, the herbicidal activity being stated in percent.
# as §2
# [3] = tested on: Brachiaria platyphylla (BRAPP)
# Procedure: as §3, §2
# Emex australis (EMEAU) = tested on: Emex australis (EMEAU)
# Procedure: as §3, §2
# [4] = tested on: Euphorbia heterophylla (EPHHL); conditions: EPHHL 21 DAT
# Procedure: as §3, §2
# [5] = tested on: Erigeron bonariensis (ERIBO)
# Procedure: as §1, §2
# [6] = tested on: Pharbitis purpurea (PHBPU)
# [7] = tested on: Polygonum convolvulus (POLCO)
# Cyperus iria (CYPIR) = tested on: Cyperus iria (CYPIR)
# Procedure: as §1, §2
# [8] = tested on: Xanthium strumarium (XANST); conditions: application rate 1 g a.i./ha
# [9] = application rate 0.25 g a.i./ha
compound,measurement,setting,value
"Nc1c(F)c(-c2ccc3cc[nH]c3c2F)nc(C(=O)O)c1Cl [P3, 4-amino-3-chloro-5-fluoro-6-(7-fluoro-1H-indol-6-yl)pyridine-2-carboxylic acid]",Herbicidal efficacy,"Solanum nigrum (SOLNI); SOLNI 21 DAT, 1.2 g a.i./ha",85%
same,Herbicidal efficacy,"[1]; ABUTH 21 DAT, 0.3 g a.i./ha",60%
same,Herbicidal efficacy,"[1]; ABUTH 21 DAT, 1.2 g a.i./ha",60%
same,Herbicidal efficacy,"Setaria viridis (SETVI); SETVI 21 DAT, 0.3 g a.i./ha",70%
same,Herbicidal efficacy [%] against SORHA 10 DAT,[2]; application rate 0.3 g a.i./ha,30%
same,Herbicidal efficacy [%] against SORHA 21 DAT,[2]; application rate 0.3 g a.i./ha,10%
same,Herbicidal efficacy [%] against SORHA 10 DAT,[2]; application rate 1.2 g a.i./ha,60%
same,Herbicidal efficacy [%] against SORHA 21 DAT,[2]; application rate 1.2 g a.i./ha,30%
same,Herbicidal efficacy,"[3]; BRAPP 10 DAT, 0.3 g a.i./ha",70%
same,Herbicidal efficacy,"[3]; BRAPP 21 DAT, 0.3 g a.i./ha",60%
same,Herbicidal efficacy,"[3]; BRAPP 21 DAT, 1.2 g a.i./ha",75%
same,Herbicidal efficacy,"Emex australis (EMEAU); EMEAU 21 DAT, 1.2 g a.i./ha",70%
"CCOC(=O)C1(C)CC(c2cc(-n3c(=O)cc(C(F)(F)F)n(C)c3=O)c(F)cc2Cl)=NO1 (stereo not shown) [P4, ethyl 3-{2-chloro-4-fluoro-5-[3-methyl-2,6-dioxo-4-(trifluoromethyl)-3,6-dihydropyrimidin-1(2H)-yl]phenyl}-5-methyl-4,5-dihydro-1,2-oxazole-5-carboxylate]",Herbicidal efficacy,"Setaria viridis (SETVI); SETVI 10 DAT, 1 g a.i./ha",88%
same,Herbicidal efficacy,"Setaria viridis (SETVI); SETVI 21 DAT, 1 g a.i./ha",80%
same,Herbicidal efficacy,"Emex australis (EMEAU); EMEAU 21 DAT, 1 g a.i./ha",70%
same,Herbicidal efficacy,[4]; 1 g a.i./ha,80%
COc1ccc(-n2nc(C)cc(C(=O)C3C(=O)CCCC3=O)c2=O)cc1OC [dioxopyritrione],Herbicidal efficacy,"[1]; ABUTH 21 DAT, 10 g a.i./ha",80%
same,Herbicidal efficacy,"Setaria viridis (SETVI); SETVI 10 DAT, 2.5 g a.i./ha",10%
same,Herbicidal efficacy,"Setaria viridis (SETVI); SETVI 10 DAT, 10 g a.i./ha",20%
same,Herbicidal efficacy,"Setaria viridis (SETVI); SETVI 21 DAT, 2.5 g a.i./ha",10%
same,Herbicidal efficacy,"Setaria viridis (SETVI); SETVI 21 DAT, 10 g a.i./ha",20%
same,Herbicidal efficacy,"[5]; ERIBO 10 DAT, 10 g a.i./ha",90%
same,Herbicidal efficacy,"[5]; ERIBO 21 DAT, 10 g a.i./ha",88%
same,Herbicidal efficacy,"[6]; PHBPU 21 DAT, 2.5 g a.i./ha",20%
same,Herbicidal efficacy [%] against SORHA 10 DAT,[2]; application rate 2.5 g a.i./ha,20%
same,Herbicidal efficacy [%] against SORHA 21 DAT,[2]; application rate 2.5 g a.i./ha,0%
same,Herbicidal efficacy [%] against SORHA 10 DAT,[2]; application rate 10 g a.i./ha,30%
same,Herbicidal efficacy [%] against SORHA 21 DAT,[2]; application rate 10 g a.i./ha,10%
same,Herbicidal efficacy,"[3]; BRAPP 10 DAT, 2.5 g a.i./ha",40%
same,Herbicidal efficacy,"[3]; BRAPP 10 DAT, 10 g a.i./ha",70%
same,Herbicidal efficacy,"[3]; BRAPP 21 DAT, 2.5 g a.i./ha",20%
same,Herbicidal efficacy,"[3]; BRAPP 21 DAT, 10 g a.i./ha",30%
same,Herbicidal efficacy,"[7]; POLCO 10 DAT, 2.5 g a.i./ha",80%
same,Herbicidal efficacy,"[7]; POLCO 10 DAT, 10 g a.i./ha",80%
same,Herbicidal efficacy,"[7]; POLCO 21 DAT, 10 g a.i./ha",70%
COc1c(Cl)ccc(-c2nc(C(=O)O)c(Cl)c(N)c2F)c1F [florpyrauxifen],Herbicidal efficacy,"[1]; ABUTH 21 DAT, 0.3 g a.i./ha",90%
same,Herbicidal efficacy,"Setaria viridis (SETVI); SETVI 10 DAT, 0.3 g a.i./ha",30%
same,Herbicidal efficacy,"Setaria viridis (SETVI); SETVI 21 DAT, 0.3 g a.i./ha",40%
same,Herbicidal efficacy [%] against SORHA 10 DAT,[2]; application rate 0.3 g a.i./ha,10%
same,Herbicidal efficacy,"[3]; BRAPP 10 DAT, 0.3 g a.i./ha",75%
same,Herbicidal efficacy,"[3]; BRAPP 21 DAT, 0.3 g a.i./ha",60%
same,Herbicidal efficacy,"Emex australis (EMEAU); EMEAU 21 DAT, 1.2 g a.i./ha",75%
same,Herbicidal efficacy,[4]; 0.3 g a.i./ha,90%
same,Herbicidal efficacy,"[7]; POLCO 10 DAT, 1.2 g a.i./ha",90%
same,Herbicidal efficacy,"[7]; POLCO 21 DAT, 1.2 g a.i./ha",90%
FC(F)c1cc(-c2c(Cl)cccc2Oc2ncc(Cl)cn2)on1 [rimisoxafen],Herbicidal efficacy [%] against SOLNI 10 DAT,Solanum nigrum (SOLNI); application rate 80 g a.i./ha,88%
same,Herbicidal efficacy [%] against SOLNI 21 DAT,Solanum nigrum (SOLNI); application rate 80 g a.i./ha,80%
same,Herbicidal efficacy,"[1]; ABUTH 10 DAT, 20 g a.i./ha",88%
same,Herbicidal efficacy,"[1]; ABUTH 21 DAT, 20 g a.i./ha",40%
same,Herbicidal efficacy,"Setaria viridis (SETVI); SETVI 21 DAT, 20 g a.i./ha",30%
same,Herbicidal efficacy,"[5]; ERIBO 21 DAT, 20 g a.i./ha",10%
same,Herbicidal efficacy,"Cyperus iria (CYPIR); CYPIR 21 DAT, 20 g a.i./ha",88%
same,Herbicidal efficacy,"[6]; PHBPU 10 DAT, 20 g a.i./ha",30%
same,Herbicidal efficacy,"[6]; PHBPU 21 DAT, 20 g a.i./ha",20%
same,Herbicidal efficacy [%] against SORHA 10 DAT,[2]; application rate 20 g a.i./ha,10%
same,Herbicidal efficacy [%] against SORHA 21 DAT,[2]; application rate 20 g a.i./ha,10%
same,Herbicidal efficacy,"[3]; BRAPP 10 DAT, 20 g a.i./ha",30%
same,Herbicidal efficacy,"[3]; BRAPP 21 DAT, 20 g a.i./ha",20%
same,Herbicidal efficacy,"Emex australis (EMEAU); EMEAU 10 DAT, 80 g a.i./ha",88%
same,Herbicidal efficacy,"Emex australis (EMEAU); EMEAU 21 DAT, 80 g a.i./ha",80%
same,Herbicidal efficacy,"[7]; POLCO 21 DAT, 20 g a.i./ha",60%
same,Herbicidal efficacy,"[7]; POLCO 21 DAT, 80 g a.i./ha",88%
CN1C[C@H](c2cccc(C(F)(F)F)c2)[C@@H](C(=O)Nc2ccccc2F)C1=O [tetflupyrolimet],Herbicidal efficacy [%] against SOLNI 10 DAT,Solanum nigrum (SOLNI); application rate 400 g a.i./ha,10%
same,Herbicidal efficacy [%] against SOLNI 21 DAT,Solanum nigrum (SOLNI); application rate 400 g a.i./ha,0%
same,Herbicidal efficacy,"[1]; ABUTH 10 DAT, 400 g a.i./ha",0%
same,Herbicidal efficacy,"[1]; ABUTH 21 DAT, 400 g a.i./ha",0%
same,Herbicidal efficacy,"Cyperus iria (CYPIR); CYPIR 10 DAT, 400 g a.i./ha",0%
same,Herbicidal efficacy,"Cyperus iria (CYPIR); CYPIR 21 DAT, 400 g a.i./ha",0%
same,Herbicidal efficacy [%] against SORHA 10 DAT,[2]; application rate 100 g a.i./ha,10%
same,Herbicidal efficacy [%] against SORHA 21 DAT,[2]; application rate 100 g a.i./ha,0%
same,Herbicidal efficacy,"[3]; BRAPP 21 DAT, 400 g a.i./ha",70%
same,Herbicidal efficacy,"[7]; POLCO 10 DAT, 400 g a.i./ha",10%
same,Herbicidal efficacy,"[7]; POLCO 21 DAT, 100 g a.i./ha",0%
same,Herbicidal efficacy,"[7]; POLCO 21 DAT, 400 g a.i./ha",0%
COC(=O)CCNC(=O)C(C)Sc1cc(-n2c(=O)cc(C(F)(F)F)n(C)c2=O)c(F)cc1Cl (stereo not shown) [tiafenacil],Herbicidal efficacy [%] against SOLNI 10 DAT,Solanum nigrum (SOLNI); application rate 1 g a.i./ha,88%
same,Herbicidal efficacy [%] against SOLNI 21 DAT,Solanum nigrum (SOLNI); application rate 1 g a.i./ha,60%
same,Herbicidal efficacy,"Cyperus iria (CYPIR); CYPIR 21 DAT, 0.25 g a.i./ha",88%
same,Herbicidal efficacy [%] against SORHA 21 DAT,[2]; application rate 1 g a.i./ha,85%
same,Herbicidal efficacy,"[3]; BRAPP 21 DAT, 1 g a.i./ha",40%
same,Herbicidal efficacy [%] against XANST 10 DAT,[8]; 10 DAT,88%
same,Herbicidal efficacy [%] against XANST 21 DAT,[8]; 21 DAT,85%
C#CCN1C(=O)C(F)(F)Oc2cc(F)c(-n3c(=O)n(C)c(=S)n(C)c3=O)cc21 [trifludimoxazin],Herbicidal efficacy [%] against SOLNI 10 DAT,Solanum nigrum (SOLNI); application rate 1 g a.i./ha,88%
same,Herbicidal efficacy [%] against SOLNI 21 DAT,Solanum nigrum (SOLNI); application rate 1 g a.i./ha,60%
same,Herbicidal efficacy,"[1]; ABUTH 10 DAT, 0.25 g a.i./ha",88%
same,Herbicidal efficacy,"[1]; ABUTH 10 DAT, 1 g a.i./ha",85%
same,Herbicidal efficacy,"[1]; ABUTH 21 DAT, 0.25 g a.i./ha",80%
same,Herbicidal efficacy,"[1]; ABUTH 21 DAT, 1 g a.i./ha",75%
same,Herbicidal efficacy,"Setaria viridis (SETVI); SETVI 10 DAT, 0.25 g a.i./ha",85%
same,Herbicidal efficacy,"Setaria viridis (SETVI); SETVI 21 DAT, 0.25 g a.i./ha",70%
same,Herbicidal efficacy,"[6]; PHBPU 21 DAT, 1 g a.i./ha",80%
same,Herbicidal efficacy [%] against SORHA 10 DAT,[2]; [9],70%
same,Herbicidal efficacy [%] against SORHA 21 DAT,[2]; [9],40%
same,Herbicidal efficacy [%] against SORHA 10 DAT,[2]; application rate 1 g a.i./ha,85%
same,Herbicidal efficacy [%] against SORHA 21 DAT,[2]; application rate 1 g a.i./ha,70%
same,Herbicidal efficacy,"[3]; BRAPP 10 DAT, 1 g a.i./ha",80%
same,Herbicidal efficacy,"Emex australis (EMEAU); EMEAU 21 DAT, 1 g a.i./ha",85%
same,Herbicidal efficacy,[4]; 0.25 g a.i./ha,88%

# Source: patent US20260068885A1, “HERBICIDAL COMPOSITIONS” (BAYER AKTIENGESELLSCHAFT, priority 2022, published 2026)
